# Laboratory results published in paper PMC5834492, “Antimycobacterial drug discovery using Mycobacteria-infected amoebae identifies anti-infectives and new molecular targets” (Scientific Reports, 2018).
# How the values were obtained:
# M. marinum luxCDABE = format: cell-based, Mycobacterium marinum
# [1] = test system: M. marinum in A. castellanii; format: cell-based, Mycobacterium marinum
# [2] = test system: M. marinum in BV2 microglial cells; format: cell-based, Mycobacterium marinum
# Mtb H37Rv in THP-1 = test system: Mtb H37Rv in THP-1; parameters: method as in Sorrentino et al, 2015; conditions: ref Sorrentino et al, 2015, cited from earlier work; for Intracelullar MIC90 in THP-1: THP1 / Mtb H37Rv infection assay; for Extracellular MIC90/ Inracellular MIC90: ratio
# Mtb H37Rv = test system: Mtb H37Rv; parameters: method as in Sorrentino et al, 2015; conditions: ref Sorrentino et al, 2015; cited from earlier work
SMILES,Antibiotic assays: M. marinum luxCDABE (M. marinum luxCDABE),Intracellular infection assays: A. castellanii / M. marinum [1],Intracellular infection assays: BV2 / M. marinum [2],Growth inhibition / Cytotoxicity assays: D. discoideum GFP-ABD (D. discoideum GFP-ABD),Growth inhibition / Cytotoxicity assays: BV2 cells (BV2 cells),Intracelullar MIC90 in THP-1 (Mtb H37Rv in THP-1) [µM],Extracellular MIC90/ Inracellular MIC90 (Mtb H37Rv in THP-1),Extracellular MIC90 (Mtb H37Rv) [µM]
Cc1nn(Cc2ccccc2)c(Cl)c1C(=O)NC1CCCCCC1 [GSK636544A],0.00,1.07,1.35,0.93,False,1.85,2.81,5.2
Fc1ccc2nc(Nc3nc(-c4ccccn4)cs3)sc2c1 [GSK735816A],0.00,1.17,1.37,0.37,False,1.85,1.24,2.3
c1ccc(-c2csc(Nc3nc4cc5c(cc4s3)OCO5)n2)nc1 [GSK735826A],0.00,0.98,1.47,0.86,False,1.85,1.46,2.7
FC(F)(F)c1cc(SCc2ccccc2)nc(-c2ccccn2)n1 [GSK847913A],0.00,0.90,1.39,0.94,False,1.85,1.78,3.3
CCc1nc2ccccc2n1CC(O)COc1cc(C)ccc1Cl (centres unmarked) [GSK889423A],0.00,1.18,1.41,0.94,False,5.55,1.58,8.8
O=C(CCSc1ccc(Cl)cc1)Nc1nc(-c2ccccn2)cs1 [GSK920703A],0.13,1.34,1.24,0.48,False,5.55,1.51,8.4
O=C(CCC1CCCCC1)Nc1cccc(-c2nnc(-c3ccco3)o2)c1 [GSK937213A],0.00,1.06,1.14,1.19,False,0.61,10,6.1
Cc1ccc(C2CC(C(F)(F)F)n3ncc(C(=O)NCc4ccc5c(c4)OCO5)c3N2)cc1 (centres unmarked) [GSK937733A],1.00,1.38,1.64,0.94,False,0.61,8.85,5.4
Cc1ccc(CNC(=O)c2cnn3c2NC(c2ccc(C)cc2)CC3C(F)F)cc1 (centres unmarked) [GSK1180781A],1.00,1.14,1.23,1.05,False,0.21,5.71,1.2
c1ccc(CCNc2cc(-c3ccccc3)nc3nncn23)cc1 [GSK1402290A],0.14,1.08,1.11,0.84,False,5.55,0.99,5.5
